Assay [1] deals with mice. As to conditions: cited from earlier work.
Assay [2] has as its system rat. To be noted: cited from earlier work.
The subject of assay [3] is mice. As to conditions: animal models; NPL 19 / NPL 21; cited from earlier work.
The test system of assay [4] is Balb/c male mice. The experiment in a line: DSS model (DSS-induced colitis). Format: in vivo, mouse. To be noted: 2.5% DSS for 7 days; 3 or 30 mg/kg orally for 7 days; evaluated day 11. The method, then:
Eight weeks-old Balb/c male mice were used in the study. Mice were allocated to four groups; normal control group, disease control group receiving vehicle, and two disease groups receiving different dose of Compound B. Colitis was induced by drinking 2.5% DSS (average molecular weight of 5,000) dissolved in water for 7 days. Compound B in 0.5% methyl cellulose solution (at a dose of 3 or 30 mg/kg) was orally administered for 7 days. The mice were sacrificed on day 11 and the colon was harvested for the evaluation. Colon length, colon weight, and histology score were analyzed. Histology score was determined as follows; 0=no signs of damage; 1=moderate inflammation; 2=severe inflammation.

For assay [5], the system named is mouse CD11c (+) cells. The experiment in a line: IL-23 production in CD11c dendritic cells (ELISA). Format: cell-based. As to conditions: 10, 100, or 1000 nM; antibody to CD40, 36 hours; supernatant ELISA. The method, then:
CD11c dendritic cells (DCs) from the spleens of C57BL/6 mice were purified by auto-magnetic activated cell sorting. The DCs were cultured in a 96-well plate at a density of 6×10^5 cells per well in the presence of 10 microgram/mL antibody to CD40 for 36 hours. Compounds listed in FIG. 1, that is, Compound A (3-[2-(4-{2-ethyl-4,6-dimethyl-1H-imidazo[4,5-c]pyridin-1-yl}phenyl)ethyl]-1-[(4-methylbenzene)sulfonyl]urea) and Compound B (4-[(1S)-1-({[5-chloro-2-(3-fluorophenoxy)pyridin-3-yl]carbonyl}amino)ethyl]benzoic acid) were added at the beginning of incubation at a dose of 10, 100, or 1000 nM. The supernatant collected at the end of culture was measured by ELISA for IL-23.

In assay [6] the test system is C57BL/6 male mice. The experiment in a line: Allergic contact dermatitis and psoriasis model (picryl chloride, ear swelling). The class given is in vivo, mouse. The method, then:
Eight weeks-old C57BL/6 male mice were used in the study. Mice were sensitized with 0.1 mL of 7% picryl chloride-ethanol on shaved abdominal skin on day O, Seven days later, the mice were treated with 0.02 mL of 1% picryl chloride-olive oil on both sides of the ear by painting. Ear thickness was measured using a thickness gage before the treatment, and 24 and 48 hours after the treatment, and the difference of ear thickness was used as a parameter of ear swelling. Compound B suspended in 0.5% methyl cellulose solution (at a dose of 3 or 30 mg/kg) was administered orally either during the entire experimental period (days 0 to 11) or elicitation (E) period (days 8 to 10).

For assay [7] the following is noted: NPL 26; cited from earlier work.
The conditions of assay [8]: NPL 27; cited from earlier work.

Entries after “also recorded” stand apart in the source; their conditions may differ.

For `CC(C(=O)Nc1cc(C#N)ccc1CCCC(=O)O)c1ccc(F)c2ccccc12` (centres unmarked) [AE3-208], the “effect on allergic contact dermatitis” value in assay [1] (animal models, NPL 19) is reported as “ameliorate”. Also, in assay [1] (prophylactic (sensitization), NPL 25), the “efficacy on the development (sensitization) of allergic contact dermatitis” value is on record as “potent inhibitory efficacy”. In assay [1] (therapeutic treatment, NPL 25), the “efficacy by therapeutic treatment in allergic contact dermatitis” value is given as “failed to show the efficacy”. For the same molecule, the “effect on DSS-induced colitis” value in assay [2] is listed as “aggravated”. Further, the “effect on MS” value in assay [3] is “treat MS; also recorded: ameliorate”.
With `CCc1nc2c(C)nc(C)cc2n1-c1ccc(CCNC(=O)NS(=O)(=O)c2ccc(C)cc2)cc1` [Compound A, 3-[2-(4-{2-ethyl-4,6-dimethyl-1H-imidazo[4,5-c]pyridin-1-yl}phenyl)ethyl]-1-[(4-methylbenzene)sulfonyl]urea], in assay [4], the colitis score result is recorded as “Dose-dependent reduction” and the colon weight/length result was “Dose-dependent reduction”. Also, the “inhibition of IL-23 production” value in assay [5] is “dose-dependent inhibition”. For the same molecule, the ear swelling result in assay [6] (treatment period not stated) is on record as “dose-dependent reduction”.
Regarding `C[C@H](NC(=O)c1cc(Cl)cnc1Oc1cccc(F)c1)c1ccc(C(=O)O)cc1` [Compound B, 4-[(1S)-1-({[5-chloro-2-(3-fluorophenoxy)pyridin-3-yl]carbonyl}amino)ethyl]benzoic acid], the colitis score entry in assay [4] is on record as “restored”. In assay [4], the colon weight/length entry was “restored”. Also, in assay [5], the “inhibition of IL-23 production” value is listed as “dose-dependent inhibition”. Moreover, the ear swelling result in assay [6] (3 or 30 mg/kg orally during elicitation (E) period (days 8 to 10)) and in assay [6] (3 or 30 mg/kg orally during entire experimental period (days 0 to 11)) was “significantly reduced” throughout. Also, the “maximum efficacy on ear swelling compared with prednisolone (Pred)” value in assay [6] (mouse, in vivo) is “equal to that of prednisolone”.
Regarding `C[C@H](NC(=O)c1cc(Cl)cnc1COc1cccc(Cl)c1)c1ccc(C(=O)O)cc1` [Compound C, 4-{(1S)-1-[({5-chloro-2-[(3-chlorophenoxy)methyl]pyridin-3-yl}carbonyl)amino]ethyl}benzoic acid], in assay [4], the colitis score entry is “Dose-dependent reduction” and the colon weight/length entry is “Dose-dependent reduction”. Moreover, the ear swelling result in assay [6] (treatment period not stated) is “dose-dependent reduction”.
`COc1ccc(-c2ccc(OCc3cc(C(=O)NS(=O)(=O)c4ccccc4C)oc3C)cc2)nc1` [Compound D, 4-((4-(5-methoxypyridin-2-yl)phenoxy)methyl)-5-methyl-N-(o-tolylsulfonyl)furan-2-carboxamide]: in assay [4], the colitis score entry is recorded as “Dose-dependent reduction” and the colon weight/length entry was “Dose-dependent reduction”. Moreover, the ear swelling entry in assay [6] (treatment period not stated) is recorded as “dose-dependent reduction”.
Take `Cc1sc(C)c(C(=O)NC2(c3ccc(C(=O)O)cc3)CC2)c1Cc1ccc(C(F)(F)F)cc1` [Compound E, 4-{1-[({2,5-dimethyl-4-[4-(trifluoromethyl)benzyl]-3-thienyl}carbonyl)amino]cyclopropyl}benzoic acid]: in assay [4], the colitis score entry was “Dose-dependent reduction” and the colon weight/length result was “Dose-dependent reduction”. In addition, the ear swelling result in assay [6] (treatment period not stated) is “dose-dependent reduction”.
In the case of `COc1ccc2c(c1)c(CC(=O)O)c(C)n2C(=O)c1ccc(Cl)cc1` [indomethacin], in assay [7], the “effect on DSS-induced colitis” value is “aggravated”. Further, the “effect on allergic contact dermatitis” value in assay [8] is “worse”.

The values are drawn from patent publication US9457084B2, “Use of EP4 receptor antagonists in the treatment of IL-23 mediated diseases” (RAQUALIA PHARMA INC., priority 2010, dated 2016).
